Marks after values point to notes of the source that are not given here.
Assays:
[1] = test system: extracellular Aβ1-40 accumulation in SH-SY5Y cells; test: Effect on extracellular Aβ1-40 accumulation (Human Aβ1-40 immunoassay of the medium); format: cell-based; details: 50 μg/ml, 24 hours, mean±SD
Procedure: (§1) Wild-type human neuroblastoma cells (SH-SY5Y) were cultured in Eagle's Minimum essential Medium (EMEM)/Ham's F12 medium (1:1 mixture) (containing 10% FBS, 10 units/ml penicillin, 10 μg/ml Streptomycin). Wild-type mouse neuroblastoma Neuro-2a cells were cultured in minimum essential medium (MEM) (containing 10% FBS, 10 units/ml penicillin, 10 μg/ml Streptomycin).
The medium of the wild-type human neuroblastoma SH-SY5Y cells in Example 1 were switched into chemical defined medium (EMEM/F12 medium (Cat. No. 12500-062), Hepes 5 mM, Glucose 0.6%, NaHCO3 3 mM, Glutamine 2.5 mM, Insulin 25 μg/ml, Transferin 100 μg/ml, Progestrone 20 nM, Putrescine 60 μM, Sodium selenite 30 nM, Heparin 2 μg/ml). Each well contained 1×10^5 SH-SY5Y cells in 300 μl of culture medium. Thirty minutes later, each well was treated with the test samples A-D given in Table 1 respectively at a concentration of 50 μg/ml for 24 hours. After that, the level of Aβ1-40 in the medium of each well was analyzed by Human Aβ1-40 immunoassay kits (Catalog #KHB3482 Invitrogen).
Human neuroblastoma SH-SY5Y cells cause extracellular accumulation of Aβ. […] The results were shown in mean±standard deviation (SD) form. Significant difference between the Vehicle control group and the test sample-treated groups were indicated by *., P<0.05, *.*, P<0.01, and. ***., P<0.001.

[2] = test system: SD rats infused intracerebroventricularly with Aβ1-42; test: Exploration behavior test in Aβ1-42-infused rats; format: in vivo, rat; details: oral
Procedure: (§2) The rats were anesthetized for implantation of an infusion cannula into the left cerebral ventricle thereof. After sewing up the incisions, the rats were returned to their cages. FIG. 7 illustrates the experimental schedule for animal studies. The exploration behavior tests were carried out on day 7, the passive avoidance learning tests were carried out on day 8 and 9, the water maze tests were carried on day 10 to 13, and the probe tests were carried out on day 14, after the start of Aβ1-42 infusion. […] The test samples were administered orally to the rats, 1 hour before the tests (i.e., the exploration behavior tests, the passive avoidance learning tests, and the water maze tests) throughout the experimental period. […] All the test samples were prepared freshly with deionized distilled water (ddH2O) every day, and were administered orally by stomach tube.
(§3) Significant difference between the Aβ1-42 control group and the other experimental groups were indicated by *., P<0.05, *.*, P<0.01, and. ***., P<0.001.

[3] = test system: SD rats infused intracerebroventricularly with Aβ1-42; test: Acetylcholine and choline levels in brain cortex and hippocampus of rats; format: in vivo, rat; details: oral
Procedure: as §2, §3
(§4) After the water maze performance tests, all rats were decapitated and their brains were rapidly removed from the skull. […]

[4] = test system: SD rats infused intracerebroventricularly with Aβ1-42; test: Passive avoidance response test in Aβ1-42-infused rats; format: in vivo, rat; details: oral
Procedure: as §2, §3

Human Aβ1-42 = Human Aβ1-42 (Homo sapiens, UniProt P05067); test: Aβ1-42 oligomerization (thioflavin T fluorescence); format: biochemical; details: 50 μg/ml, 24 hours
Procedure: Dried Human Aβ1-42 was taken out from the refrigerator and equilibrated to room temperature. Aβ1-42 was dissolved in 1,1,1,3,3,3-Hexa-fluro-2-propanol (HFIP) to a concentration of 1 mM, and was then placed at room temperature for one hour. The Aβ1-42/HFIP solution was aliquoted by Hamilton syringe, and was then dried under a stream of nitrogen gas, followed by storing at a temperature of −20[…]. Aβ1-42 treated with HFIP was dissolved in PBS, and was vibration-incubated with treatment of each test sample at a concentration of 50 μg/ml and at 4[…] for 24 hours to prepare Aβ1-42 oligomers. The level of Aβ1-42 oligomerization was analyzed by thioflavin T fluorescence (Ex=450 nm, Em=482 nm).

[5] = test system: SD rats infused intracerebroventricularly with Aβ1-42; test: Water maze spatial performance and probe tests in Aβ1-42-infused rats; format: in vivo, rat; details: oral
Procedure: as §2, §3

[6] = test system: Aβ-degrading enzymes released by Neuro-2a cells; test: Effect on extracellular Aβ1-40 degradation in Neuro-2a conditioned medium; format: biochemical, mouse; details: Neuro-2a medium, 50 μg/ml, 10 ng synthetic Aβ1-40, 24 hours
Procedure: as §1
Mouse neuroblastoma Neuro-2a cells will release Aβ-degrading enzymes in the chemical defined medium, but will not produce detectable amount of Aβ in the medium. The Neuro 2a cells were incubated in the medium for 24 hours, and then the medium were drawn out without cells. The medium were individually treated with the test samples A-D at a concentration of 50 μg/ml and 10 ng synthetic Aβ1-40 for 24 hours, and then the effects of each test sample on promoting the enzymes in the medium were examined. The remaining Aβ1-40 amount of each well was analyzed by Human Aβ1-40 Immunoassay kits (Catalog #KHB3482 Invitrogen), expressing as percentage, as compared with the Vehicle control group.

[7] = test system: SD rats infused intracerebroventricularly with Aβ1-42; test: Dopamine (DA) and metabolites DOPAC and HVA levels in brain cortex and hippocampus of rats; format: in vivo, rat; details: for DA level / DOPAC level / HVA level: mean±SD
Procedure: as §2, §3
After the water maze performance tests, all rats were decapitated and their brains were rapidly removed from the skull. According to Glowinski and Iversen, the brain cortex and hippocampus were separated, and then each cortex and hippocampus were weighed and were homogenized by addition of 50 mM Na-phosphate buffer (pH 7.8) for analyzing the concentrations of neurotransmitters and the levels of enzymes.

acetylcholinesterase = test: Acetylcholinesterase activities in brain cortex and hippocampus of rats; format: in vivo, rat; details: oral; D 2.5 and 5 mg/kg, Aricept 0.75 mg/kg
Procedure: as §2, §3, §4

[8] = test system: Aβ1-42 plaques in rat brain; test: Immunohistochemical staining for Aβ1-42 in the hippocampus section of rat's brain; format: in vivo; details: oral
Description: In the following Examples 7 to 11 illustrated below, male Sprague-Dawley (SD) rats, weighed 250-300 gm, were obtained from BioLASCO Taiwan Co. Ltd. The SD rats were infused intracerebroventricularly with Aβ1-42 to cause neuronal damage, affecting their memory and learning ability, and leading to form senile plaque-like aggregates in the rat's brain, being used as an animal model of Alzheimer's disease. Alzheimer's disease animal model induced by Aβ can be referred to, for example, Nabeshima et al. (Neuroscience Letters (1994) 170: 63-66)(British Journal of Pharmacology (1999) 126: 235-244).
The rats were anesthetized for implantation of an infusion cannula into the left cerebral ventricle thereof. After sewing up the incisions, the rats were returned to their cages. FIG. 7 illustrates the experimental schedule for animal studies. The exploration behavior tests were carried out on day 7, the passive avoidance learning tests were carried out on day 8 and 9, the water maze tests were carried on day 10 to 13, and the probe tests were carried out on day 14, after the start of Aβ1-42 infusion. The Sham group was treated with TFA solution (64.9% sterile ddH2O, 35% acetonitrile, 0.1% trifluoroacetic acid), and the other experimental groups were treated with 0.5 μl of Aβ1-42 dissolved in TFA solution per hour, corresponding to 300 pmol/12 μl of Aβ1-42 (Tocris 1428; MW: 4514.08) per day. The test samples were administered orally to the rats, 1 hour before the tests (i.e., the exploration behavior tests, the passive avoidance learning tests, and the water maze tests) throughout the experimental period. […] All the test samples were prepared freshly with deionized distilled water (ddH2O) every day, and were administered orally by stomach tube.
All rats were sacrificed and their brains were removed, cut into slices and stained. Neurotransmitters were also tested.
After the water maze performance tests, all rats were decapitated and their brains were rapidly removed from the skull, and then immunohistochemical staining for Aβ1-42 in the hippocampus section of their brains. […]

[9] = D 2.5 and 5 mg/kg, Aricept 0.75 mg/kg
[10] = brain hippocampus, oral 2.5 mg/kg
[11] = brain hippocampus, oral 5 mg/kg

Sequence of Human Aβ1-42 (P05067 672-713 limits assumed): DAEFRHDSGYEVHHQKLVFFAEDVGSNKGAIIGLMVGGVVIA

Compound: Isoacteoside [Test sample D]
- reduction of the level of Aβ1-40 in the medium in comparison with the Vehicle control group [1]: about 47.44±16.62%
- exploratory activities, compared with Aricept 0.75 mg/kg ([2]; 5 mg/kg): shows better effects than Aricept 0.75 mg/kg
- exploratory activities of the rats ([2]; D 2.5 and 5 mg/kg, Aricept 0.75 mg/kg, day 7): effective in improving the exploratory activities of the rats
- acetylcholine levels in the brain cortex and hippocampus ([3]; 5 mg/kg): particularly potent
- acetylcholine levels in the brain cortex and hippocampus [3, 9]: reverse the decrease in acetylcholine levels
- passive avoidance response, compared with Aricept 0.75 mg/kg ([4]; 2.5 mg/kg): shows equivalent effect with Aricept 0.75 mg/kg
- passive avoidance response, compared with Aricept 0.75 mg/kg ([4]; 5 mg/kg): shows better effects than Aricept 0.75 mg/kg
- passive avoidance learning impairment (step-through latency) [4, 9]: reverse the passive avoidance learning impairment
- activity on inhibiting Aβ1-42 oligomerization (in words) (Human Aβ1-42): possess activities on inhibiting Aβ1-42 oligomerization
- inhibition of Aβ1-42 oligomerization (Human Aβ1-42): 98.93±1.70%
- water maze spatial performance and probe test, compared with Aricept 0.75 mg/kg ([5]; 5 mg/kg): shows better effects than Aricept 0.75 mg/kg
- deficits of the water maze spatial performance and the probe test [5, 9]: can be improved
- Aβ1-40 degradation (remaining Aβ1-40 amount) [6]: does not accelerate Aβ degradation
- DA level ([7]; brain cortex, oral 2.5 mg/kg): 2.67 ± 0.43
- DOPAC level ([7]; brain cortex, oral 2.5 mg/kg): 12.53 ± 3.33
- HVA level ([7]; brain cortex, oral 2.5 mg/kg): 2.92 ± 0.58
- DA level ([7]; brain cortex, oral 5 mg/kg): 3.84 ± 0.47*
- DOPAC level ([7]; brain cortex, oral 5 mg/kg): 13.80 ± 3.03
- HVA level ([7]; brain cortex, oral 5 mg/kg): 2.74 ± 0.69
- DA level [7, 10]: 5.41 ± 1.30***
- DOPAC level [7, 10]: 4.98 ± 1.15
- HVA level [7, 10]: 3.68 ± 0.46
- DA level [7, 11]: 4.07 ± 0.59***
- DOPAC level [7, 11]: 4.13 ± 0.45
- HVA level [7, 11]: 3.29 ± 0.25
- DA levels in the cortex and hippocampus (in words) ([7]; oral, D 2.5 and 5 mg/kg, Aricept 0.75 mg/kg): reverse the decrease in DA levels
- acetylcholinesterase activities in the brain cortex and hippocampus (acetylcholinesterase): reverse the increase in acetylcholinesterase activities
- plaques found in the brain of the rat ([8]; 2.5 mg/kg): few plaques
- plaques found in the brain of the rat ([8]; 5 mg/kg): almost no plaques
- plaques in the brain, compared with Aricept-treated rat ([8]; D 2.5 and 5 mg/kg vs Aricept 0.75 mg/kg): less than that in the brain of the rat treated with Aricept

Compound: C[C@@H]1O[C@@H](O[C@@H]2[C@@H](O)[C@H](OCCc3ccc(O)c(O)c3)O[C@H](CO)[C@H]2OC(=O)/C=C/c2ccc(O)c(O)c2)[C@H](O)[C@H](O)[C@H]1O [Test sample C, Acteoside, reference compound]
- reduction of the level of Aβ1-40 in the medium in comparison with the Vehicle control group [1]: about 20%
- activity on inhibiting Aβ1-42 oligomerization (in words) (Human Aβ1-42): possess activities on inhibiting Aβ1-42 oligomerization

Compound: C[C@@H]1O[C@@H](O[C@@H]2[C@@H](O)[C@H](OCCc3ccc(O)c(O)c3)O[C@H](CO[C@@H]3O[C@H](CO)[C@@H](O)[C@H](O)[C@H]3O)[C@H]2OC(=O)/C=C/c2ccc(O)c(O)c2)[C@H](O)[C@H](O)[C@H]1O [Test sample B, Echinacoside, reference compound]
- activity on inhibiting Aβ1-42 oligomerization (in words) (Human Aβ1-42): possess activities on inhibiting Aβ1-42 oligomerization

— patent US20120009131A1, “METHOD FOR PREVENTING OR TREATING AMYLOID BETA PEPTIDE-ASSOCIATED DISEASES OR CONDITIONS, AND METHOD FOR INHIBITING FORMATION, ACCUMULATION OR AGGREGATION OF AMYLOID BETA PEPTIDES” (Sinphar Tian-Li Pharmaceutical Co., Ltd. (Hangzhou), priority 2010, published 2012)
